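Values below derive from 48-hour exposures of cells grown in 96-well plates, with endpoints linearly interpolated between the two concentrations bracketing the appropriate inhibition level. The concentration for full growth arrest is given as TGI.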
Experiments:
Assay in all cases: NCI tumour cell line growth inhibition, 48 h
MALME-3M melanoma = system: MALME-3M melanoma
NCI-H226 lung = system: NCI-H226 lung
SN12C renal = system: SN12C renal
NCI-H460 lung = system: NCI-H460 lung
SK-OV-3 ovarian = system: SK-OV-3 ovarian
OVCAR-3 ovarian = system: OVCAR-3 ovarian
HOP-62 NSCLC = system: HOP-62 NSCLC
OVCAR-5 ovarian = system: OVCAR-5 ovarian
MCF7 breast = system: MCF7 breast
LOX IMVI melanoma = system: LOX IMVI melanoma
SR leukemia = system: SR leukemia
DU-145 prostate = system: DU-145 prostate
NCI-H23 lung = system: NCI-H23 lung
COLO 205 colon = system: COLO 205 colon
T-47D breast = system: T-47D breast
NCI-H522 lung = system: NCI-H522 lung
MDA-MB-231 breast = system: MDA-MB-231 breast
UACC-62 melanoma = system: UACC-62 melanoma
IGROV1 ovarian = system: IGROV1 ovarian
786-0 renal = system: 786-0 renal
SK-MEL-2 melanoma = system: SK-MEL-2 melanoma
BT-549 breast = system: BT-549 breast
HCT-15 colon = system: HCT-15 colon
PC-3 prostate = system: PC-3 prostate
CCRF-CEM leukemia = system: CCRF-CEM leukemia
K-562 leukemia = system: K-562 leukemia
SNB-75 CNS = system: SNB-75 CNS
ACHN renal = system: ACHN renal
A549 NSCLC = system: A549 NSCLC
EKVX NSCLC = system: EKVX NSCLC
OVCAR-4 ovarian = system: OVCAR-4 ovarian
CAKI-1 renal = system: CAKI-1 renal
TK-10 renal = system: TK-10 renal
RPMI-8226 leukemia = system: RPMI-8226 leukemia
SW-620 colon = system: SW-620 colon
A498 renal = system: A498 renal
KM12 colon = system: KM12 colon
SF-268 CNS = system: SF-268 CNS
SF-539 CNS = system: SF-539 CNS
MDA-MB-435 = system: MDA-MB-435
RXF 393 renal = system: RXF 393 renal
HCC-2998 colon = system: HCC-2998 colon
SK-MEL-5 melanoma = system: SK-MEL-5 melanoma
HT29 colon = system: HT29 colon
HOP-92 NSCLC = system: HOP-92 NSCLC
SNB-19 CNS = system: SNB-19 CNS
UO-31 renal = system: UO-31 renal
OVCAR-8 ovarian = system: OVCAR-8 ovarian
MOLT-4 leukemia = system: MOLT-4 leukemia
M14 melanoma = system: M14 melanoma
U251 CNS = system: U251 CNS
UACC-257 melanoma = system: UACC-257 melanoma
MDA-N = system: MDA-N
SF-295 CNS = system: SF-295 CNS
HS 578T breast = system: HS 578T breast
SK-MEL-28 melanoma = system: SK-MEL-28 melanoma
HCT-116 colon = system: HCT-116 colon
HL-60(TB) leukemia = system: HL-60(TB) leukemia
NCI/ADR-RES ovarian = system: NCI/ADR-RES ovarian

Measured: TGI

Nc1nc(Cl)c(N)c(NCC2(CO)CC(O)C2)n1 (configuration not stated)
> 100 µM: all assays above

O=C1NC(c2ccccc2)C1N(Cc1ccccc1)Cc1ccccc1 (configuration not stated)
not listed: A549 NSCLC
> 100 µM: all other assays above
